According to patent US8129557B2, “Phosphonic acid diester derivative and method for producing thereof” (priority 2005, dated 2012):
Marks after values point to notes of the source that are not given here.

Experiments:
E-coli GGT = target: T1, E-coli GGT (Escherichia coli, UniProt P18956); assay: Second-order rate constant kon of E-coli GGT inactivation (continuous or discontinuous assay); type: biochemical, Escherichia coli K-12; conditions: for kon E-coli GGT: second-order rate constant for enzyme inactivation, pH 5.5, 25° C.
T1 construct: was used as a purified enzyme of E-coli GGT; made in house
T1 sequence (P18956 26-390 limits assumed): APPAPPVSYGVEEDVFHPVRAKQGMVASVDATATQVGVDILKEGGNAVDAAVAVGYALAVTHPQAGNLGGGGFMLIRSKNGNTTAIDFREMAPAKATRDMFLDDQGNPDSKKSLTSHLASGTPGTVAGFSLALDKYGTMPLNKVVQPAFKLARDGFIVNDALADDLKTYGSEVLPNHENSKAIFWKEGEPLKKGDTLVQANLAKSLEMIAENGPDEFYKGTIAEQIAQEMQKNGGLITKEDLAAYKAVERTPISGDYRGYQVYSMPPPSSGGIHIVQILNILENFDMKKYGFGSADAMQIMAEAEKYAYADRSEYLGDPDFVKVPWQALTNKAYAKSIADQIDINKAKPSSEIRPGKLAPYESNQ
T1 sequence (P18956 391-580 limits assumed): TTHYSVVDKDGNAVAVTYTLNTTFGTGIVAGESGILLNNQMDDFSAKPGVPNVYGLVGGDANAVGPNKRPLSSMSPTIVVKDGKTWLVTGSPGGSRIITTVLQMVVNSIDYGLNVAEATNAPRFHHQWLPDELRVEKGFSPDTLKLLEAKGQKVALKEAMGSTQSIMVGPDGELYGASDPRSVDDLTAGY
Text: (§1) Purified enzyme of E-coli GGT and crude enzyme of human GGT were employed as GGT samples for an inhibition experiment. The enzyme whose physicochemical properties are described in the Document (Hideyuki Suzuki, Hidehiko Kumagai, Tatsurokukro Tochikura “gamma-Glutamyltranspeptidase from Escherichia coli K-12: Purification and Properties” Journal of Bacteriology, December 1986, Vol. 168, No. 3, p. 1325-1331) was used as a purified enzyme of E-coli GGT. Enzyme [HC-GTP (product number), 603AA (lot number)] manufactured by Asahi Kasei Co., Ltd. was used as a crude enzyme of human GGT. The crude enzyme of human GGT contained a large amount of bovine serum albumin (BSA) to stabilize the enzyme, and the GGT concentration was 1% or lower.
In the hydrolytic assay of E. coli GGT, 10 μL of a […] enzyme solution was added to a 100 mM succinic acid-sodium hydroxide buffer solution (pH 5.5) in a total volume of 1 mL containing 100 μL of 2 μM substrate aqueous solution. The product, 7-amino-4-methylcoumarin (AMC), released along with the enzyme reaction was traced continuously at 25° C. using a fluorospectrophotometer F-2000 manufactured by Hitachi Ltd. (excitation wavelength: 350 nm, emission wavelength: 440 nm). The AMC concentration was separately measured by forming a calibration curve showing the relation of the fluorescence intensity (F) and the concentration (C) using standard solutions and was calculated from the relational expression (1) of the fluorescence intensity alteration (ΔF) and concentration alteration (ΔC).
(§2) Next, a second-order rate constant for enzyme inactivation kon was measured by either a continuous assay or a discontinuous assay. Both of the continuous and discontinuous assay for measuring inhibitory activity to GGT were carried out under a pseudo-first-order reaction condition.
(§3) In the continuous assay, while the temperature was kept at 25° C., the 100 mM succinic acid-sodium hydroxide buffer solutions (pH 5.5) containing an inhibitor in various concentrations and the substrate were preincubated for equilibrium. Herein, 0.2 μM of the substrate was used for the case of E-coli GGT and 0.4 μM of the substrate was used for the case of human GGT. Thereafter, the enzyme solution of the E-coli GGT was added in a manner that the final concentration became 0.04 nM and also the human GGT crude enzyme solution was added in a manner that the final concentration became 5 μg/mL. Accordingly, the reaction was started and the release of AMC (increase of the fluorescence intensity) was continuously traced for 10 minutes.
(§4) The fluorescence intensity data obtained from the respective curves was applied to the following pseudo-first-order rate equation (2) and the observed pseudo-first-order rate constant for enzyme inactivation (kobs) was calculated by nonlinear regression analysis [Stein, R. L. et al. Biochemistry 26, 2682-2689 (1987)].
(§5) [Equation 2] [P]=[P]∞[1−exp(−kobst)] (2)
(§6) When the kobs was plotted against to the inhibitor concentration ([I]), a linear relation was obtained until the maximum extent of the experimentally possible inhibitor concentration. Therefore, the second-order rate constant for enzyme inactivation kon was calculated using the following equation (3) deduced from the kinetic mechanism.
(§7) [drawing 37] [Equation 3] kobs=kon[I]/(1+[S]/Km) (3)
(§8) Herein, S denotes 7-(γ-L-glutamylamino)-4-methylcoumarin. The substrate concentration [S] for E-coli GGT is 0.2 μM and the Km value is 0.2 μM. […] The kinetic data was obtained by nonlinear regression analysis using Kaleida graph, a program produced by Synergy Software.
Further, in the discontinuous assay, an inhibitor in various concentrations was dissolved in 100 mM succinic acid-sodium hydroxide buffer solution (pH 5.5) and the enzyme solution was added to the resulting buffer solutions. […]

human GGT = target: T2, human GGT (Homo sapiens, UniProt P19440); assay: Second-order rate constant kon of human GGT inactivation (continuous or discontinuous assay); type: biochemical; conditions: for kon Human GGT: second-order rate constant for enzyme inactivation, pH 5.5, 25° C.; for plot of log kon (human GGT) against pKa of aryl group, FIG. 4: position relative to the straight line
T2 construct: purchased Asahi Kasei Co., Ltd. HC-GTP (lot 603AA)
Text: as §1
In the hydrolytic assay of human GGT, the measurement was carried out in the same manner as that in the hydrolytic assay of E-coli GGT, except that the substrate concentration was changed to […] and therefore, the explanation of the common portions was omitted.
as §2, §3, §4, §5, §6, §7, §8
Further, in the discontinuous assay, an inhibitor in various concentrations was dissolved in 100 mM succinic acid-sodium hydroxide buffer solution (pH 5.5) and the enzyme solution was added to the resulting buffer solutions. Herein, in the case of E-coli GGT, the enzyme solution was added in a manner that the final concentration became 0.4 nM and also the human GGT crude enzyme solution was added in a manner that the final concentration became 0.5 mg/mL. Accordingly, the reaction of the inhibitor and each GGT was conducted at 25° C. An aliquot (10 μL) of each of the reaction solutions were sampled at every specified time to measure the remaining enzyme activity by the above-mentioned enzyme activation method. The remaining enzyme activity at every time was analyzed by nonlinear regression using the pseudo-first-order rate equation (4) of enzyme inactivation to calculate the value of kobs.
[Equation 4] αt/α0=exp(−kobst) (4) […]

[1] = Chemical stability: hydrolysis ratio after storage in water at room temperature; type: physicochemical
Experimental: Herein, the hydrolysis ratios of the reactive compounds of Examples 1 to 11 were measured after the respective compounds were stored in water at room temperature. In this connection, the compounds other than the compound of Example 10 were stored in water for 12 hours and the compound of Example 10 was stored in water for 112 hours.

[2] = Hydrolysis ratio of Example 7 in alkaline, neutral or acidic solvent; type: physicochemical; conditions: for Hydrolysis ratio (%): after 12 hours
Experimental: Herein, the compound of Example 7 was dissolved in a solvent shown in Table 4 and kept at 23.5° C., and the hydrolysis ratio of the compound of Example 7 was measured after 12 hours.

[3] = stored in water at room temperature for 12 hours

T2 sequence (P19440 1-380 limits assumed): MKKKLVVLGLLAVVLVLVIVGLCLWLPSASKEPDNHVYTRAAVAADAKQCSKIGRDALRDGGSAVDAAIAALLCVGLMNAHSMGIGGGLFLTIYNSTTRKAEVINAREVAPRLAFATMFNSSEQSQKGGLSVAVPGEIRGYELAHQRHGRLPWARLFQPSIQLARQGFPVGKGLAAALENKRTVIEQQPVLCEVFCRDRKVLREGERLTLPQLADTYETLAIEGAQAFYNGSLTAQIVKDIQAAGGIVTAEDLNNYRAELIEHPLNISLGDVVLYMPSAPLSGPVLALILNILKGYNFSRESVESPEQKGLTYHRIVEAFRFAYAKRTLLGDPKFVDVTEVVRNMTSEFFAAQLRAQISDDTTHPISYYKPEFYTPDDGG
T2 sequence (P19440 381-569 limits assumed): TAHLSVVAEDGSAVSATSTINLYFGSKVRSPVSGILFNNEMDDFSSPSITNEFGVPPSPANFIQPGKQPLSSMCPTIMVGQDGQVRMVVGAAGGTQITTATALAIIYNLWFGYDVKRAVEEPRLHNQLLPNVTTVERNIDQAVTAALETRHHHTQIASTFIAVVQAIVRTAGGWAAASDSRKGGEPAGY

In the case of `N[C@H](C(=O)O)[C@@H]1CC(Cl)=NO1` [Comparative Example 1, (aS, 5S)-acivicin, reference compound], the “kon E-coli GGT” value (E-coli GGT) is reported as 4210 ± 10 M^−1S^−1 and the “kon Human GGT” value (human GGT) is reported as 0.40 ± 0.02 M^−1S^−1.
For `COP(=O)(CCC(N)C(=O)O)Oc1ccc(C)cc1` (stereo not shown) [Example 1, 2-amino-4-[methyl(4-methylphenyl)phosphono]butanoic Acid], the “Hydrolysis ratio (%)” value [1, 3] was 0%, the “kon E-coli GGT” value (E-coli GGT) was 23 M^−1S^−1 and the “kon Human GGT” value (human GGT) was 0.24 M^−1S^−1.
In the case of `COc1ccc(OP(=O)(CCC(N)C(=O)O)OC)cc1` (stereo not shown) [Example 2, 2-amino-4-[(4-methoxyphenyl)(methyl)phosphono]butanoic Acid], the “Hydrolysis ratio (%)” value [1, 3] is reported as 0%, the “kon E-coli GGT” value (E-coli GGT) is reported as 19.5 M^−1S^−1 and the “kon Human GGT” value (human GGT) is reported as 0.16 M^−1S^−1.
In the case of `COP(=O)(CCC(N)C(=O)O)Oc1ccccc1` (stereo not shown) [Example 3, 2-amino-4-[methyl(phenyl)phosphono]butanoic Acid], the “Hydrolysis ratio (%)” value [1, 3] is reported as 0%, the “kon E-coli GGT” value (E-coli GGT) is reported as 115 M^−1S^−1 and the “kon Human GGT” value (human GGT) is reported as 0.40 M^−1S^−1.
In the case of `COP(=O)(CCC(N)C(=O)O)Oc1ccc(Cl)cc1` (stereo not shown) [Example 4, 2-amino-4-[(4-chlorophenyl)(methyl)phosphono]butanoic Acid], the “Hydrolysis ratio (%)” value [1, 3] is reported as 0%, the “kon E-coli GGT” value (E-coli GGT) is reported as 607 M^−1S^−1 and the “kon Human GGT” value (human GGT) is reported as 5.0 M^−1S^−1.
In the case of `COP(=O)(CCC(N)C(=O)O)Oc1ccc(C(F)(F)F)cc1` (stereo not shown) [Example 5, 2-amino-4-[methyl(4-trifluoromethylphenyl)phosphono]butanoic acid], the “Hydrolysis ratio (%)” value [1, 3] is reported as 0%, the “kon E-coli GGT” value (E-coli GGT) is reported as 2800 M^−1S^−1 and the “kon Human GGT” value (human GGT) is reported as 11.5 M^−1S^−1.
For `COP(=O)(CCC(N)C(=O)O)Oc1ccc(C#N)cc1` (stereo not shown) [Example 6, 2-amino-4-[(4-cyanophenyl)(methyl)phosphono]butanoic Acid], the “Hydrolysis ratio (%)” value [1, 3] was 12.3%, the “kon E-coli GGT” value (E-coli GGT) was 12000 M^−1S^−1 and the “kon Human GGT” value (human GGT) was 45.9 M^−1S^−1.
With `COP(=O)(CCC(N)C(=O)O)Oc1ccc([N+](=O)[O-])cc1` (stereo not shown) [Example 7, 2-amino-4-[methyl(4-nitrophenyl)phosphono]butanoic Acid] the “Hydrolysis ratio (%)” value [1, 3] was 48.6%, the “Hydrolysis ratio (%)” value ([2]; 0.1 N CF3COOD, pH <1, 23.5° C.) was 0% and the “Hydrolysis ratio (%)” value ([2]; 0.1 N CH3COOD, pH 2.9, 23.5° C.) was 40%. The “Hydrolysis ratio (%)” value ([2]; 0.1 N DCl + MeOH, pH <1, 23.5° C.) was 0%, the “Hydrolysis ratio (%)” value ([2]; 0.1 N DCl, pH <1, 23.5° C.) was 0% and the “Hydrolysis ratio (%)” value ([2]; 0.1 N Na2CO3, pH 11.6, 23.5° C.) was 100%. For the same compound, the “Hydrolysis ratio (%)” value ([2]; 0.1 N NaHCO3, pH 8.3, 23.5° C.) was 100%, the “Hydrolysis ratio (%)” value ([2]; D2O, pH 7, 23.5° C.) was 49% and the “hydrolysis ratio in words” value ([2]; under the acidic condition) was “low”. For the same compound, the “hydrolysis ratio in words” value ([2]; under the alkaline condition) was “high”, the “kon E-coli GGT” value (E-coli GGT) was 35000 M^−1S^−1 and the “kon Human GGT” value (human GGT) was 125.1 M^−1S^−1.
With `COP(=O)(CCC(N)C(=O)O)Oc1ccc2c(C)cc(=O)oc2c1` (stereo not shown) [Example 8, 2-amino-4-[methyl(4-methylumbelliferyl)phosphono]butanoic Acid] the “Hydrolysis ratio (%)” value [1, 3] was 6.0%, the “mode of inhibition of E-coli GGT (activity plot, FIG. 1)” value (E-coli GGT; AMC fluorescence against time) was “irreversibly inactivate” and the “kon E-coli GGT” value (E-coli GGT) was 15700 M^−1S^−1. For the same compound, the “mode of inhibition of human GGT (activity plot, FIG. 2)” value (human GGT; AMC fluorescence against time) was “irreversibly inactivate”, the “plot of log kon (human GGT) against pKa of aryl group, FIG. 4” value (shortened to “plot of log kon (human GGT)”) (human GGT) was “deviate upward” and the “kon Human GGT” value (human GGT) was 2400 M^−1S^−1.
For `CCCCOP(=O)(CCC(N)C(=O)O)Oc1ccccc1` (stereo not shown) [Example 9, 2-amino-4-[butyl(phenyl)phosphono]butanoic Acid], the “Hydrolysis ratio (%)” value [1, 3] was 0%, the “kon E-coli GGT” value (E-coli GGT) was 9.0 M^−1S^−1 and the “kon Human GGT” value (human GGT) was 0.023 M^−1S^−1.
With `CCC(OP(=O)(CCC(N)C(=O)O)Oc1ccccc1)C(=O)NCC(=O)O` (stereo not shown) [Example 10, 2-amino-4-[1-[N-(carboxymethyl)carbamoyl]propyl(phenyl)phosphono]butanoic acid] the “Hydrolysis ratio (%)” value ([1]; stored in water at room temperature for 112 hours) was 37.5* %, the “kon E-coli GGT” value (E-coli GGT) was 80.9 M^−1S^−1 and the “plot of log kon (human GGT)” value (human GGT) was “deviate upward”. For the same compound, the “kon Human GGT” value (human GGT) was 74.5 M^−1S^−1.
With `COP(=O)(CCC(N)C(=O)O)Oc1ccc(CC(=O)O)cc1` (stereo not shown) [Example 12, 2-amino-4-{[4-(carboxymethyl)phenyl](methyl)phosphono}butanoic Acid] the “kon E-coli GGT” value (E-coli GGT) was 200 M^−1S^−1 and the “kon Human GGT” value (human GGT) was 0.33 M^−1S^−1.
With `COP(=O)(CCC(N)C(=O)O)Oc1ccc(C(=O)O)cc1` (stereo not shown) [Example 13, 2-amino-4-[4-carboxyphenyl(methyl)phosphono]butanoic Acid] the “kon E-coli GGT” value (E-coli GGT) was 3200 M^−1S^−1 and the “kon Human GGT” value (human GGT) was 5.2 M^−1S^−1.
In the case of `COP(=O)(CCC(N)C(=O)O)Oc1cccc([N+](=O)[O-])c1` (stereo not shown) [Example 14, 2-amino-4-[methyl(3-nitrophenyl)phosphono]butanoic Acid], the “kon E-coli GGT” value (E-coli GGT) is reported as 5100 M^−1S^−1 and the “kon Human GGT” value (human GGT) is reported as 49 M^−1S^−1.
In the case of `COP(=O)(CCC(N)C(=O)O)Oc1cccc(C(=O)O)c1` (stereo not shown) [Example 15, 2-amino-4-[3-carboxyphenyl(methyl)phosphono]butanoic Acid], the “kon E-coli GGT” value (E-coli GGT) is reported as 450 M^−1S^−1 and the “kon Human GGT” value (human GGT) is reported as 1.63 M^−1S^−1.
With `COP(=O)(CCC(N)C(=O)O)Oc1cccc(CCC(=O)O)c1` (stereo not shown) [Example 16, 2-amino-4-{[3-(2-carboxyethyl)phenyl](methyl)phosphono}butanoic Acid] the “kon E-coli GGT” value (E-coli GGT) was 71 M^−1S^−1, the “plot of log kon (human GGT)” value (human GGT) was “deviate upward” and the “kon Human GGT” value (human GGT) was 7.67 M^−1S^−1.
In the case of `NC(CCP(=O)(Oc1ccccc1)Oc1ccccc1)C(=O)O` (stereo not shown) [Example 17, 2-amino-4-(diphenylphosphono)butanoic Acid], the “kon E-coli GGT” value (E-coli GGT) is reported as 28 M^−1S^−1 and the “kon Human GGT” value (human GGT) is reported as 0.41 M^−1S^−1.
